Activity calls are given as the source filed them. The calls are words filed in the database; no cut-off is given here.
Legend:
Cell membrane [1] = assay: Induction of cell membrane depolarization in methicillin-resistant Staphylococcus aureus clinical isolate MRSA-16 assessed as fold increase in fluorescence intensity at 32 ug/ml measured every 2 mins for 20 mins by DISC3(5) staining based analysis; format: cell membranes; conditions: dose 32.0 µg/ml
Cell membrane [2] = assay: Induction of cytoplasmic membrane depolarization in methicillin-resistant Staphylococcus aureus clinical isolate MRSA-16 assessed as fold increase in fluorescence intensity at 32 ug/ml measured every 2 mins for 20 mins by SYTOX green staining based analysis; format: cell membranes; conditions: dose 32.0 µg/ml
Cell membrane [3] = assay: Induction of cell membrane permeability in methicillin-resistant Staphylococcus aureus clinical isolate MRSA-16 assessed as dead cells (Q1 region) at 4 ug/ml incubated for 2 hrs by SYTO 9 and PI staining based flow cytometry analysis (reference value: 0.00%); format: cell membranes; conditions: dose 4.0 µg/ml
Cell membrane [4] = assay: Induction of cell membrane permeability in methicillin-resistant Staphylococcus aureus clinical isolate MRSA-16 assessed as dead cells (Q1 region) at 16 ug/ml incubated for 2 hrs by SYTO 9 and PI staining based flow cytometry analysis (reference value: 0.00%); format: cell membranes; conditions: dose 16.0 µg/ml
Cell membrane [5] = assay: Induction of cell membrane permeability in methicillin-resistant Staphylococcus aureus clinical isolate MRSA-16 assessed as dead cells (Q1 region) at 32 ug/ml incubated for 2 hrs by SYTO 9 and PI staining based flow cytometry analysis (reference value: 0.00%); format: cell membranes; conditions: dose 32.0 µg/ml
Cell membrane [6] = assay: Induction of cell membrane permeability in methicillin-resistant Staphylococcus aureus clinical isolate MRSA-16 assessed as increase in damaged cells (Q2 region) at 4 ug/ml incubated for 2 hrs by SYTO 9 and PI staining based flow cytometry analysis (reference value: 0.91%); format: cell membranes; conditions: dose 4.0 µg/ml
Cell membrane [7] = assay: Induction of cell membrane permeability in methicillin-resistant Staphylococcus aureus clinical isolate MRSA-16 assessed as increase in damaged cells (Q2 region) at 8 ug/ml incubated for 2 hrs by SYTO 9 and PI staining based flow cytometry analysis (reference value: 0.91%); format: cell membranes; conditions: dose 8.0 µg/ml
Cell membrane [8] = assay: Induction of cell membrane permeability in methicillin-resistant Staphylococcus aureus clinical isolate MRSA-16 assessed as increase in damaged cells (Q2 region) at 32 ug/ml incubated for 2 hrs by SYTO 9 and PI staining based flow cytometry analysis (reference value: 0.91%); format: cell membranes; conditions: dose 32.0 µg/ml
Cell membrane [9] = assay: Induction of cell membrane permeability in methicillin-resistant Staphylococcus aureus clinical isolate MRSA-16 assessed as increase in damaged cells (Q2 region) at 64 ug/ml incubated for 2 hrs by SYTO 9 and PI staining based flow cytometry analysis (reference value: 0.91%); format: cell membranes; conditions: dose 64.0 µg/ml
Staphylococcus aureus [10] = assay: Antibacterial activity against methicillin-resistant Staphylococcus aureus in presence of peptidoglycan; format: functional
Staphylococcus aureus [11] = assay: Bactericidal activity against methicillin-resistant Staphylococcus aureus incubated with 3 to 6 hrs compound treated plasma; format: functional; conditions: time 3-6 hrs
[12] = Cytotoxicity against human L02 cells assessed as cell viability at <=16 ug/ml by CCK-8 method relative to control; format: toxicity, cell-based; conditions: up to 16 µg/mL, read-out: Activity
[13] = Cytotoxicity against human L02 cells assessed as cell viability at 32 ug/ml by CCK-8 method relative to control; format: toxicity, cell-based; conditions: at 32 µg/mL, read-out: Activity
[14] = Toxicity in Kunming mouse assessed as survival rate at 40 mg/kg, sc measured after 24 hrs relative to control; format: organism-based; conditions: in vivo
[15] = Toxicity in Kunming mouse assessed as redness in back of skin at 20 mg/kg, sc measured after 24 hrs; format: organism-based; conditions: in vivo
[16] = Toxicity in Kunming mouse assessed as swelling in back of skin at 20 mg/kg, sc measured after 24 hrs; format: organism-based; conditions: in vivo
[17] = Toxicity in Kunming mouse assessed as effect on liver at 10 mg/kg, sc measured after 24 hrs by H and E staining based analysis; format: organism-based; conditions: in vivo
[18] = Toxicity in Kunming mouse assessed as histopathological abnormalities in liver at 10 mg/kg, sc measured after 24 hrs by H and E staining based analysis; format: organism-based; conditions: in vivo
[19] = Toxicity in Kunming mouse assessed as histopathological abnormalities in lung at 10 mg/kg, sc measured after 24 hrs by H and E staining based analysis; format: organism-based; conditions: in vivo
[20] = Toxicity in Kunming mouse assessed as histopathological abnormalities in kidney at 10 mg/kg, sc measured after 24 hrs by H and E staining based analysis; format: organism-based; conditions: in vivo
Staphylococcus aureus [21] = assay: Antibacterial activity against methicillin-resistant Staphylococcus aureus infected in Kunming mouse skin infection model assessed as effect on skin abscesses in subcutaneous tissue at 8 mg/kg,sc measured after 24 hrs; format: functional, organism-based
Staphylococcus aureus [22] = assay: Antibacterial activity against methicillin-resistant Staphylococcus aureus infected in Kunming mouse skin infection model assessed as appearance of small number of infiltrated inflammatory cells in subcutaneous tissue at 8 mg/kg,sc measured after 24 hrs; format: functional, organism-based
Staphylococcus aureus [23] = assay: Antibacterial activity against methicillin-resistant Staphylococcus aureus infected in Kunming mouse skin infection model assessed as reduction in number of bacterial cells at 4 to 8 mg/kg,sc measured after 24 hrs; format: functional, organism-based; conditions: dose 4-8 mg/kg
Staphylococcus aureus [24] = assay: Antibacterial activity against methicillin-resistant Staphylococcus aureus infected in Kunming mouse skin infection model assessed as decrease in bacterial load at 8 mg/kg,sc measured after 24 hrs relative to control; format: functional; set-up: scale not given: the % may be the effect or the level left
Staphylococcus aureus [25] = assay: Antibacterial activity against methicillin-resistant Staphylococcus aureus infected in Kunming mouse skin infection model assessed as decrease in bacterial load at 8 mg/kg,sc measured after 24 hrs; format: functional
Staphylococcus aureus [26] = assay: Antibacterial activity against methicillin-resistant Staphylococcus aureus infected in Kunming mouse skin infection model assessed as decrease in bacterial load at 4 mg/kg,sc measured after 24 hrs; format: functional
[27] = Toxicity in Kunming mouse assessed as effect on heart at 4 to 8 mg/kg, sc measured after 24 hrs by H and E staining based analysis; format: organism-based; conditions: in vivo, dose 4-8 mg/kg
[28] = Toxicity in Kunming mouse assessed as effect on liver at 4 to 8 mg/kg, sc measured after 24 hrs by H and E staining based analysis; format: organism-based; conditions: in vivo, dose 4-8 mg/kg
[29] = Toxicity in Kunming mouse assessed as effect on kidney at 4 to 8 mg/kg, sc measured after 24 hrs by H and E staining based analysis; format: organism-based; conditions: in vivo, dose 4-8 mg/kg
[30] = Toxicity in Kunming mouse assessed as histopathological abnormalities in liver at 4 to 8 mg/kg, sc measured after 24 hrs by H and E staining based analysis; format: organism-based; conditions: in vivo, dose 4-8 mg/kg
[31] = Toxicity in Kunming mouse assessed as histopathological abnormalities in lung at 4 to 8 mg/kg, sc measured after 24 hrs by H and E staining based analysis; format: organism-based; conditions: in vivo, dose 4-8 mg/kg
Staphylococcus aureus [32] = assay: Antibacterial activity against methicillin-resistant Staphylococcus aureus clinical isolate MRSA-11 measured after 16 to 18 hrs by CLSI method; format: functional; conditions: time 16-18 hrs
Staphylococcus aureus [33] = assay: Antibacterial activity against methicillin-resistant Staphylococcus aureus clinical isolate MRSA-18 measured after 16 to 18 hrs by CLSI method; format: functional; conditions: time 16-18 hrs
Staphylococcus aureus [34] = assay: Antibacterial activity against methicillin-resistant Staphylococcus aureus clinical isolate MRSA-20 measured after 16 to 18 hrs by CLSI method; format: functional; conditions: time 16-18 hrs
Staphylococcus aureus [35] = assay: Antibacterial activity against methicillin-resistant Staphylococcus aureus clinical isolate MRSA-22 measured after 16 to 18 hrs by CLSI method; format: functional; conditions: time 16-18 hrs
[36] = Hemolytic activity in sheep erythrocytes incubated for 1 hr by absorbance based analysis; format: toxicity, cell-based, Ovis aries, Erythrocyte

SMILES: CCCC[N+](C)(CCCC)CCCCCOc1ccc(C2CC(=O)c3c(OC)cc(OCCCCC[N+](C)(CCCC)CCCC)c(CC=C(C)C)c3O2)cc1.[I-].[I-] (stereo unspecified)
- fold change (FC) (Cell membrane [1]): 4.5
- fold change (FC) (Cell membrane [2]): 7
- Activity (Cell membrane [3]): 0.44%
- Activity (Cell membrane [4]): 28.4%
- Activity (Cell membrane [5]): 99.2%
- Activity (Cell membrane [6]): 38.6%
- Activity (Cell membrane [7]): 57.4%
- Activity (Cell membrane [8]): 0.79%
- Activity (Cell membrane [9]): 0.02%
- MIC (Staphylococcus aureus [10]): 32 µg/mL
- MBC (Staphylococcus aureus [11]): 4 µg/mL
- viability [12]: 100%
- viability at 32 ug/ml [13]: 72%
- survival at 24 h [14]: 80%
- Activity [15]: Toxic
- Activity [16]: Toxic
- Activity [17]: Non-Toxic
- Activity [18]: Non-Toxic
- Activity [19]: Non-Toxic
- Activity [20]: Non-Toxic
- Activity (Staphylococcus aureus [21]): inactive
- Activity (Staphylococcus aureus [22]): Active
- Activity (Staphylococcus aureus [23]): Active
- Activity (Staphylococcus aureus [24]): 99.99%
- Activity (Staphylococcus aureus [25]): 5 log10CFU/g
- Activity (Staphylococcus aureus [26]): 3.2 log10CFU/g
- Activity [27]: Non-Toxic
- Activity [28]: Non-Toxic
- Activity [29]: Non-Toxic
- Activity [30]: Non-Toxic
- Activity [31]: Non-Toxic
- MIC (Staphylococcus aureus [32]): 0.5 µg/mL
- MIC (Staphylococcus aureus [33]): 0.5 µg/mL
- MIC (Staphylococcus aureus [34]): 0.5 µg/mL
- MIC (Staphylococcus aureus [35]): 1 µg/mL
- HC50 at 1 h [36]: > 1280 µg/mL

From ChEMBL document CHEMBL5505992, “Novel membrane-targeting isoxanthohumol-amine conjugates for combating methicillin-resistant Staphylococcus aureus (MRSA) infections” (Eur J Med Chem, 2024)
